Here are results for 53 compounds from US8642609B2, “Modulators of ATP-binding cassette transporters” (Vertex Pharmaceuticals Incorporated, priority 2003, dated 2014).

For the test, the target named is T1, ΔF508-CFTR (Homo sapiens, UniProt P13569, DEL508-508).
T1 construct: expressed in transfected cells
In words: Membrane potential optical assay (FRET/VIPR), identification of correction compounds. The class given is cell-based. To be noted: for Emax: relative efficacy. In outline: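 Corrector screen: FRET voltage-sensor dyes (CC2-DMPE donor, DiSBAC2(3)) report Cl^− efflux-driven depolarization after 10 μM forskolin and 20 μM genistein in Cl^−-free medium. Beforehand, ΔF508-CFTR NIH3T3 fibroblasts received compound for 16 hrs at 37° C; temperature-corrected cells (27° C) served as positive control.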

T1 sequence (P13569 with tags, fused parts or gaps DEL508-508): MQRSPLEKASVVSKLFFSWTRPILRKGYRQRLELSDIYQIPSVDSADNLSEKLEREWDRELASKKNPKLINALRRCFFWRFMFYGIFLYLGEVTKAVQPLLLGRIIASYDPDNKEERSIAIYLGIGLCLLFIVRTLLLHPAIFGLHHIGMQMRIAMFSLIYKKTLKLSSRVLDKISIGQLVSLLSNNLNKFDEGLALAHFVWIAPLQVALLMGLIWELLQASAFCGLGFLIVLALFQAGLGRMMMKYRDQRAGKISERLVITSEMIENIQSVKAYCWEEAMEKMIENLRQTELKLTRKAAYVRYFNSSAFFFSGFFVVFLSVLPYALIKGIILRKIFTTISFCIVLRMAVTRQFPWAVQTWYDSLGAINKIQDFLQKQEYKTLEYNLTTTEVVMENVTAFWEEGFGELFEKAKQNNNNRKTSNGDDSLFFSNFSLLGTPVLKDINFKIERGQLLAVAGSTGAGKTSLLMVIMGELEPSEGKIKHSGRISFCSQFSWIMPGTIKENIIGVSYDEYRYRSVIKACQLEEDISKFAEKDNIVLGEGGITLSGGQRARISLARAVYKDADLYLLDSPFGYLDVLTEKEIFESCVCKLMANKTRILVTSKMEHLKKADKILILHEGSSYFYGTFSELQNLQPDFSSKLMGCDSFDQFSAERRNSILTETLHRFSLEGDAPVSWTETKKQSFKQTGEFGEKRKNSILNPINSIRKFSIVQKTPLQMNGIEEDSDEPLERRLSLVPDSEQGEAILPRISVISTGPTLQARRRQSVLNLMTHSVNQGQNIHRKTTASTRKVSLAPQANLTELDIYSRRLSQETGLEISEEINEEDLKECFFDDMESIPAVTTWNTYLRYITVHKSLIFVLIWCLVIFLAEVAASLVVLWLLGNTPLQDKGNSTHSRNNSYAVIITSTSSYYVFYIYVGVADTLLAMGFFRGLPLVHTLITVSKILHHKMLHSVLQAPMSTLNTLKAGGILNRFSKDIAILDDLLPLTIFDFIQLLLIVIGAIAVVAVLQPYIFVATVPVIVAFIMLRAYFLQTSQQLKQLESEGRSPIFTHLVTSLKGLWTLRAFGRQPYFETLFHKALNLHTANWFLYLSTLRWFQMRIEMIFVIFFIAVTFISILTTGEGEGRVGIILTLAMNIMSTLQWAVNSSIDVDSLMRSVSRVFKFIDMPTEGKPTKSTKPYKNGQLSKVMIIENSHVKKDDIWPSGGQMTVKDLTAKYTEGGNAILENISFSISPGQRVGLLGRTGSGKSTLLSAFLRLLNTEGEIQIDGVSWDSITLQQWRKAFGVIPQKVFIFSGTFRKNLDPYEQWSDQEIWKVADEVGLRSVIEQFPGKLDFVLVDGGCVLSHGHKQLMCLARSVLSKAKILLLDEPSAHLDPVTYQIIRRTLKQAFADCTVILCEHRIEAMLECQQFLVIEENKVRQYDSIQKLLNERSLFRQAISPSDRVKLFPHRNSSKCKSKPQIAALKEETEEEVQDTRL

In the case of `COc1ccc(S(=O)(=O)N2CCN(C(C)c3nc(N4CCC5CCCCC5C4)c4ccccc4n3)CC2)cc1` (stereo not shown) [compound 327], the EC50 (usually the concentration that produces a half-maximal response) was below 10 µM and the Emax (usually the size of the effect at its maximum, as opposed to the concentration needed) is above 100%.
In the case of `COc1ccc(S(=O)(=O)N2CCC(NC(C)c3nc4ccccc4c(=O)n3C)C2)cc1` (stereo not shown) [compound 224], the concentration for a half-maximal effect (EC50) was in the range of 25 to 60 µM and the Emax is below 25%.
On to `COc1ccc(S(=O)(=O)N2CCN(C(C)c3nc4cccc(Cl)c4c(=O)n3C)CC2)cc1` (stereo not shown) [compound 106], for which the EC50 lay within 10 to 25 µM and the maximal effect (Emax) is below 25%.
With `COc1ccc(S(=O)(=O)N2CCN(C(C)c3nc(N4CCN(C)CC4)c4ccccc4n3)CC2)cc1` (stereo not shown) [compound 345], the EC50 fell in the range of 25 to 60 µM and the Emax was 25 to 100%.
`COc1ccc(S(=O)(=O)N2CCN(C(C)c3ncc(C(=O)N(C)C)c(N4CCCCC4)n3)CC2)cc1` (stereo not shown) [compound 358]: the EC50 lay within 25 to 60 µM and the Emax fell in the range of 25 to 100%.
In the case of `Cc1ccc(C(=O)N2CCN(C(C)c3nc4cc(Cl)ccc4c(=O)n3C)CC2)cc1` (stereo not shown) [compound 120], the EC50 fell in the range of 10 to 25 µM and the maximum response (Emax) was below 25%.
For `COc1ccc(S(=O)(=O)N(C[C@@H]2CCCCN2S(=O)(=O)c2ccc(OC)cc2)C(C)c2nc3ccccc3c(=O)n2C)cc1` (stereo partly shown) [compound 203], in that order: 25 to 60 µM and below 25%.
For the compound `Cc1ccc(C(=O)N2CCN(C(C)c3cc4ccc(Cl)cc4c(=O)n3C)CC2)cc1` (stereo not shown) [compound 58], the EC50 is 10 to 25 µM and the maximal effect (Emax) was below 25%.
For the compound `CC(c1nc2ccc(Cl)cc2c(=O)n1C)N1CCN(S(=O)(=O)c2ccccc2Cl)CC1` (stereo not shown) [compound 63], the EC50 was in the range of 10 to 25 µM and the Emax was below 25%.
With `COc1ccc(S(=O)(=O)N2CCN(C(C)c3nc(N4CCC5(CC4)OCCO5)c4ccccc4n3)CC2)cc1` (stereo not shown) [compound 323], the EC50 lay within 10 to 25 µM and the Emax lay within 25 to 100%.
Regarding `CC(=O)Nc1ccc(S(=O)(=O)N2CCN(C(C)c3nc4ccccc4c(=O)n3C)CC2)cc1` (stereo not shown) [compound 230], the EC50 was 25 to 60 µM and the Emax is below 25%.
For the compound `Cc1cccc(C(=O)N2CCN(C(C)c3nc4ccc(Cl)cc4c(=O)n3C)CC2)c1` (stereo not shown) [compound 59], the EC50 was in the range of 25 to 60 µM and the Emax was in the range of 25 to 100%.
Consider `CCN(CC)c1nc(C(C)N2CCN(S(=O)(=O)c3ccc(Cl)cc3)CC2)nc2ccccc12` (stereo not shown) [compound 235], for which the EC50 was below 10 µM and the maximal effect (Emax) was in the range of 25 to 100%.
Regarding `CC(c1nc2ccccc2c(=O)n1C)N1CCCN(S(=O)(=O)c2ccc(Br)cc2)CC1` (stereo not shown) [compound 172], the EC50 was below 10 µM and the Emax is 25 to 100%.
For `CC(c1nc2ccc(C(N)=O)cc2c(=O)n1C)N1CCN(S(=O)(=O)c2ccc(Br)cc2)CC1` (stereo not shown) [compound 156], in that order: 10 to 25 µM and 25 to 100%.
Turning to `CC(c1nc2ccccc2c(=O)n1C)N(CCCNS(=O)(=O)c1ccc(Br)cc1)S(=O)(=O)c1ccc(Br)cc1` (stereo not shown) [compound 207], the EC50 was below 10 µM and the Emax was in the range of 25 to 100%.
As to `COc1ccc(S(=O)(=O)N2CCN(Cc3nc(N4CCCCC4)c4ccccc4n3)CC2)cc1` [compound 384], the half-maximal effective concentration (EC50) was in the range of 10 to 25 µM and the maximum response (Emax) is above 100%.
As to `COC(=O)c1ccccc1S(=O)(=O)N1CCN(C(C)c2nc3ccccc3c(=O)n2C)CC1` (stereo not shown) [compound 245], the EC50 is 25 to 60 µM and the Emax was below 25%.
In the case of `CC(c1nc2ccc(Br)cc2c(=O)n1C)N1CCN(S(=O)(=O)c2ccc(Br)cc2)CC1` (stereo not shown) [compound 118], the concentration for a half-maximal effect (EC50) was below 10 µM and the Emax was in the range of 25 to 100%.
Take `CC(NC1CCN(S(=O)(=O)c2ccc(Cl)cc2)C1)c1nc2ccccc2c(=O)n1C` (stereo not shown) [compound 225]: the half-maximal effective concentration (EC50) lay within 25 to 60 µM and the Emax is below 25%.
On the same counts, the results for `CC(c1nc2ccccc2c(=O)n1C)N(CCN(C)S(=O)(=O)c1ccc(Cl)cc1)S(=O)(=O)c1ccc(Cl)cc1` (stereo not shown) [compound 201] are 25 to 60 µM and below 25%.
For `COc1ccc(S(=O)(=O)N2CCN(C(C)c3nc(N4CCSCC4)c4ccccc4n3)CC2)cc1` (stereo not shown) [compound 321], the EC50 was below 10 µM and the maximum response (Emax) is above 100%.
For `CC(c1nc2ccccc2c(=O)n1C)N1CCN(S(=O)(=O)c2ccc(Cl)cc2)CC1` (stereo not shown) [compound 9], in that order: 10 to 25 µM and above 100%.
Regarding `CCCC(c1nc2ccccc2c(=O)[nH]1)N1CCN(S(=O)(=O)c2ccc(OC)cc2)CC1` (stereo not shown) [compound 335], the EC50 is 10 to 25 µM and the maximal response (Emax) was 25 to 100%.
As for `CC(c1nc2ccc(Br)cc2c(=O)n1C)N1CCN(S(=O)(=O)c2ccc(Cl)cc2)CC1` (stereo not shown) [compound 117], the EC50 fell in the range of 10 to 25 µM and the Emax was 25 to 100%.
As to `CC(c1nc2ccccc2c(=O)n1C)N1CCN(S(=O)(=O)c2cccc3cccnc23)CC1` (stereo not shown) [compound 276], the EC50 was 25 to 60 µM and the Emax is below 25%.
With `COc1ccc(S(=O)(=O)N2CCN(C(C)c3nc(OC4CCC5CC4C5)c4ccccc4n3)CC2)cc1` (stereo not shown) [compound 400], the EC50 was below 10 µM and the Emax was above 100%.
On the same counts, the results for `CC(c1nc2ccccc2c(=O)n1C)N1CCN(S(=O)(=O)c2ccccc2Cl)CC1` (stereo not shown) [compound 229] are 25 to 60 µM and 25 to 100%.
For the compound `CC(c1nc2ccccc2c(=O)n1C)N(C)C1CCN(S(=O)(=O)c2ccc(Cl)cc2)CC1` (stereo not shown) [compound 315], the EC50 is 25 to 60 µM and the Emax is 25 to 100%.
Turning to `CC(c1nc2ccc(Cl)cc2c(=O)n1C)N1CCN(C(=O)c2ccccc2)CC1` (stereo not shown) [compound 38], the EC50 fell in the range of 25 to 60 µM and the maximal effect (Emax) is below 25%.
With `CC(c1nc2cc(Cl)ccc2c(=O)n1C)N1CCN(C(=O)Cc2ccccc2)CC1` (stereo not shown) [compound 112], the EC50 fell in the range of 10 to 25 µM and the Emax was below 25%.
For the compound `Cc1ccc(NC(=O)N2CCN(C(C)c3nc4ccccc4c(=O)n3C)CC2)cc1` (stereo not shown) [compound 56], the EC50 fell in the range of 10 to 25 µM and the Emax was below 25%.
On the same counts, the results for `COc1ccc(S(=O)(=O)N2CCN(C(C)c3nc(OC4CCC(C)C(C)C4)c4ccccc4n3)CC2)cc1` (stereo not shown) [compound 348] are below 10 µM and above 100%.
Consider `CCCn1c(C(C)N2CCN(S(=O)(=O)c3ccccc3)CC2)nc2ccccc2c1=O` (stereo not shown) [compound 19], for which the EC50 lay within 10 to 25 µM and the Emax lay in the range of 25 to 100%.
On the same counts, the results for `CC(NC1CCN(S(=O)(=O)c2ccc(Br)cc2)C1)c1nc2ccccc2c(=O)n1C` (stereo not shown) [compound 226] are 25 to 60 µM and 25 to 100%.
Turning to `CCC(c1nc2ccccc2c(=O)n1CC)N1CCN(S(=O)(=O)c2ccc(OC)cc2)CC1` (stereo not shown) [compound 338], the EC50 is below 10 µM and the Emax was above 100%.
Take `COc1ccc(S(=O)(=O)N2CCN(C(C)c3nc(NC4CCCC4)c4ccccc4n3)CC2)cc1` (stereo not shown) [compound 303]: the concentration giving a half-maximal response (EC50) is below 10 µM and the Emax was above 100%.
For `COc1ccc(C(=O)N2CCN(C(C)c3nc4cc(Cl)ccc4c(=O)n3C)CC2)cc1` (stereo not shown) [compound 122], in that order: 10 to 25 µM and below 25%.
`CC(NC[C@@H]1CCCCN1S(=O)(=O)c1ccc(Cl)cc1)c1nc2ccccc2c(=O)n1C` (stereo partly shown) [compound 214]: the 50% effective concentration (EC50) lay within 25 to 60 µM and the Emax is below 25%.
In the case of `CC(c1nc2ccccc2c(=O)n1C)N1CCN(S(=O)(=O)c2ccc(C(=O)O)cc2)CC1` (stereo not shown) [compound 240], the EC50 lay in the range of 25 to 60 µM and the Emax was below 25%.
Take `CC(c1nc2cc(Cl)ccc2c(=O)n1C)N1CCN(S(=O)(=O)c2ccccc2)CC1` (stereo not shown) [compound 91]: the EC50 was in the range of 10 to 25 µM and the Emax was in the range of 25 to 100%.
Take `CCC(c1nc2ccccc2c(=O)[nH]1)N1CCN(S(=O)(=O)c2ccc(OC)cc2)CC1` (stereo not shown) [compound 334]: the EC50 was in the range of 25 to 60 µM and the Emax was 25 to 100%.
Consider `CCCn1c(CN2CCN(S(=O)(=O)c3ccc(OC)cc3)CC2)nc2ccccc2c1=O` [compound 150], for which the EC50 was 10 to 25 µM and the Emax was 25 to 100%.
With `CC(c1nc2ccc(Cl)cc2c(=O)n1C)N1CCN(C(=O)c2ccc(Br)cc2)CC1` (stereo not shown) [compound 17], the EC50 was in the range of 10 to 25 µM and the Emax fell in the range of 25 to 100%.
As for `CC(c1nc2ccccc2c(=O)n1C)N(CCNS(=O)(=O)c1ccc(Br)cc1)S(=O)(=O)c1ccc(Br)cc1` (stereo not shown) [compound 199], the EC50 was in the range of 25 to 60 µM and the Emax is below 25%.
`CC(c1nc(N2CCOCC2)c2ccccc2n1)N1CCN(S(=O)(=O)c2ccc(Br)cc2)CC1` (stereo not shown) [compound 223]: the EC50 lay within 10 to 25 µM and the Emax was above 100%.
Turning to `COc1ccc(S(=O)(=O)NCCCN(C(C)c2nc3ccccc3c(=O)n2C)S(=O)(=O)c2ccc(OC)cc2)cc1` (stereo not shown) [compound 205], the EC50 fell in the range of 25 to 60 µM and the Emax was below 25%.
`CC(c1nc2ccccc2c(=O)n1C)N1CCN(S(=O)(=O)c2cccc3nsnc23)CC1` (stereo not shown) [compound 282]: the EC50 lay in the range of 25 to 60 µM and the Emax is below 25%.
In the case of `CC(c1nc2ccc(S(C)(=O)=O)cc2c(=O)n1C)N1CCN(S(=O)(=O)c2ccccc2)CC1` (stereo not shown) [compound 138], the EC50 lay within 10 to 25 µM and the Emax was below 25%.
For `COc1ccc(S(=O)(=O)N2CCC(C(C)c3nc(OC4CCCC4)c4ccccc4n3)CC2)cc1` (stereo not shown) [compound 403], in that order: below 10 µM and above 100%.
As for `Cc1ccc(S(=O)(=O)N2CCN(C(C)c3nc4ccccc4c(=O)n3C)CC2)cc1` (stereo not shown) [compound 11], the concentration for a half-maximal effect (EC50) lay within 10 to 25 µM and the Emax lay within 25 to 100%.
For `COc1ccc(S(=O)(=O)N2CCN(C(C)c3nc(N4CCCCC4)c4ccccc4n3)CC2)cc1` (stereo not shown) [compound 302], in that order: below 10 µM and above 100%.
`COc1ccc(S(=O)(=O)N2CCN(C(C)c3ncc(C(=O)O)c(N4CCCCC4)n3)CC2)cc1` (stereo not shown) [compound 355]: the EC50 fell in the range of 25 to 60 µM and the Emax is below 25%.
